One compound from publication PMC4947679, “Quantitative In Vitro and In Vivo Evaluation of Intestinal and Blood-Brain Barrier Transport Kinetics of the Plant N-Alkylamide Pellitorine” (BioMed Research International, 2016) can be followed below.

In one data set the test system is Caco-2 cell monolayer. As to the kind of experiment: Caco-2 cell permeability assay. The data set is classed as in vitro ADME, human. Here is the method: (§1) The Caco-2 cell line originated from a human colorectal carcinoma and was maintained in Dulbecco's modified Eagle's medium (DMEM) (95% humidity, 37°C, 5% CO2), supplemented with 10% (V/V) fetal bovine serum, 100 U/mL penicillin and 100 μg/mL streptomycin, 2 mM L-glutamine, and 1% nonessential amino acids (all from Invitrogen/GIBCO, Ghent, Belgium).
(§2) The Caco-2 cell intestinal model was used to investigate the gut mucosa permeation of pellitorine. On each Transwell (Corning Costar, New York, USA) membrane insert filter (0.4 μm pore size, 12 mm filter diameter), the cells were seeded at a density of 2.6 · 10^5 cells/cm^2 cells and cultivated in the described supplemented DMEM. Every second day, the medium was changed. During a period of 21–29 days, the cells were grown and differentiated until monolayers were formed. The integrity of the monolayers was checked via the measurement of transepithelial electrical resistance (TEER) of the monolayers with a Millicell-ERS system (Millipore Corp., Bedford, MA, USA) before and after the transport experiments. The experiments were performed in duplicate for each dose solution. Transport experiments were carried out according to Hubatsch et al. in two directions: from the apical-to-basolateral (ab) direction and from the basolateral-to-apical (ba) direction in Hanks' Balanced Salt solution. Two dose solutions of pellitorine (in Anacyclus pyrethrum extract) of 1 μg/mL in 0.5% EtOH (further indicated as DS1) and of 56 μg/mL in 0.5% of a mixture of vitamin E-TPGS (33.3%), EtOH (11.1%), PEG 400 (33.3%), and PG (22.2%) (further indicated as DS2) dissolved in HBSS were tested.
(§3) Final apical volumes of 0.4 mL and basolateral volumes of 1.2 mL were used for 12 mm filter supports during the transport experiment. After 15, 30, 60, 90, and 120 min, samples were taken from the receiver compartment (basolateral to apical transport: 100 μL, apical-to-basolateral transport: 300 μL) and immediately replaced by fresh HBSS. […] Pellitorine was quantified using a ultraperformance liquid chromatography-tandem mass spectrometry (UPLC-MS^2) method as described below.
(§4) The apparent permeability coefficient (P app in cm/s) of pellitorine in DS2 was calculated using a sink condition equation, while P app of pellitorine in DS1 was calculated using a nonsink equation. From Fick's first law, J = −D × [dC(x)]/dx (J is the flux or transfer rate along the donor-to-receptor side, D is the diffusion coefficient, x is the distance from the donor compartment, and C(x) is the concentration in the barrier at the coordinate x in the barrier), the following differential equation is derived: dM r(t)/dt = P app × A × [C d(t) − C r(t)], in which P app is the apparent permeability coefficient (a product of distribution coefficient with diffusion coefficient divided by the barrier thickness), M r is the amount of substance in the receiver chamber, A is the cross-sectional area of the barrier, C d is the donor concentration, and C r is the receiver concentration. This differential equation can be solved to calculate P app using different initial conditions depending on sink or nonsink conditions. In case of sink conditions, the following equation was obtained from the amount of compound transported per time dM r(t)/dt with the receiver concentration set to zero [18, 20]:(1) Mrt/Cd,0=Papp×A×t+c, where P app is the apparent permeability coefficient (cm/s), A is the surface area of the filter (1.12 cm^2), C d,0 is the initial concentration in the donor chamber (μg/mL), t is the time (s), and c is a constant term which vanishes, since M r is initially zero at t = 0.
(§5) The donor concentration at each time point was calculated by taking into account the amount of compound which already permeated through the cell monolayer during that time interval. In this way, the reduction in donor concentration after every sampling was also taken into account.

Data set [1] in a line: Caco-2 cell permeability assay. The class given is in vitro ADME, human. The settings on record: human, Caco-2. The method, then: as §1, §2, §3, §4, §5
(Caco-2 monolayers are a common model of the intestinal barrier.)

[2] abbreviates: apical-to-basolateral, DS1, after 120 min.
Setting [3] is: apical-to-basolateral, DS2, after 120 min.
The mark [4] stands for this setting: basolateral-to-apical, DS1, after 120 min.
Setting [5] is: basolateral-to-apical, DS2, after 120 min.

With `CCCCC/C=C/C=C/C(=O)NCC(C)C` [pellitorine, deca-2E,4E-dienoic acid isobutylamide], the “uptake ratio (P app,ab/P app,ba)” value stood at 0.84 in the data set on Caco-2 cell monolayer (DS1) and 1.96 in the data set on Caco-2 cell monolayer (DS2). Moreover, the “amount of pellitorine permeated” value in the data set with Caco-2 cell monolayer (setting [2]) came out at 0.31 µg; with Caco-2 cell monolayer (setting [3]) it was 2.24 µg; in the data set with Caco-2 cell monolayer (setting [4]), 0.39 µg; in the data set on Caco-2 cell monolayer (setting [5]), 1.24 µg. The “percentage of applied pellitorine permeated” value came out at 56.7% in the data set with Caco-2 cell monolayer (setting [2]), 9.98% with Caco-2 cell monolayer (setting [3]), 23.7% in the data set on Caco-2 cell monolayer (setting [4]) and 1.84% in the data set on Caco-2 cell monolayer (setting [5]). Moreover, the “ratio of P app values between the apical-to-basolateral and the basolateral-to-apical direction or vice versa” value in the data set with Caco-2 cell monolayer (both dose solutions) was at most 2. The Papp A→B at 120 min, 1 μg/mL in data set [1] (DS1: 1 μg/mL pellitorine (in Anacyclus pyrethrum extract) in 0.5% EtOH in HBSS, nonsink equation, mean ± SD, n = 2, read-out: apparent permeability coefficient (P app), apical-to-basolateral transport) came to 48.08 ± 0.08 ×10⁻⁶ cm/s. In data set [1] (DS1, mean ± SD, n = 2, read-out: apparent permeability coefficient (P app), basolateral-to-apical transport), the Papp B→A at 120 min, 1 μg/mL was found to be 57.5 ± 6.2 ×10⁻⁶ cm/s. Besides, the Papp A→B at 120 min, 56 μg/mL in data set [1] (DS2: 56 μg/mL pellitorine (in Anacyclus pyrethrum extract) in 0.5% vitamin E-TPGS/EtOH/PEG 400/PG mixture in HBSS, sink equation, mean ± SD, n = 2, read-out: apparent permeability coefficient (P app), apical-to-basolateral transport) is 5.5 ± 0.06 ×10⁻⁶ cm/s. Moreover, in data set [1] (DS2, mean ± SD, n = 2, read-out: apparent permeability coefficient (P app), basolateral-to-apical transport), the Papp B→A at 120 min, 56 μg/mL is 2.8 ± 0.09 ×10⁻⁶ cm/s. Besides, the recovery at 120 min in data set [1] (after 120 min, read-out: mass balance, total recovery) fell in the range of 104 to 132%.
